Experimental data from patent US20060252807A1, “Novel ortho-terphenyl inhibitors of p38 kinase and methods of treating inflammatory disorders” (Kalypsys, Inc., priority 2005, published 2006).

Target: T1, active p38 alpha enzyme (Upstate Biotechnology) (Homo sapiens, UniProt Q16539)
T1 construct: purchased Upstate Biotechnology
Assay: p38α biochemical assay (ATP turnover, luminescent detection, Cambrex PKlight)
Conditions: p38α kinase; Table 1 Biological Activity
Outline: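 Measures total ATP turnover by luminescence after human p38α phosphorylates full MapkapK2 protein. Final ATP is 1.4 uM, and incubation runs 2 hours at 30C. The buffer includes 100 mM MgCl2, 4 mM CaCl2 and 1 mg/ml BSA.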

T1 sequence (Q16539 whole entry): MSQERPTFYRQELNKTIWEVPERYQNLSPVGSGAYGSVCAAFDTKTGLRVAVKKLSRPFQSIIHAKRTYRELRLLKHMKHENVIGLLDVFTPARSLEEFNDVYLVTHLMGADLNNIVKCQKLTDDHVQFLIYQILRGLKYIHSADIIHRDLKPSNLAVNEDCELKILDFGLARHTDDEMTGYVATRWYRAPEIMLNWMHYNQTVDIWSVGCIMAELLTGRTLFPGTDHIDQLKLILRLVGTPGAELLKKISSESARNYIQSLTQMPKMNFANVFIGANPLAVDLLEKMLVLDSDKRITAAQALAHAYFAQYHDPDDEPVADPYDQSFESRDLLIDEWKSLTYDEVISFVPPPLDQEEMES

SMILES	IC50
Cc1nc(-c2ccc(F)cc2)c(-c2nc(C(=O)NCc3ccc(C(C)C)cc3)cs2)s1 [Example 1795]	> 1000 nM
Cc1nc(-c2ccc(F)cc2)c(-c2nc(C(=O)NCc3ccc4c(c3)OCO4)cs2)s1 [Example 1796]	≤ 1000 nM
COc1cccc(CCNC(=O)c2csc(-c3sc(C)nc3-c3ccc(F)cc3)n2)c1 [Example 1797]	≤ 1000 nM
Cc1nc(-c2ccc(F)cc2)c(-c2nc(C(=O)N[C@H](CO)Cc3ccccc3)cs2)s1 [Example 1798]	≤ 1000 nM
COc1ccc(CCNC(=O)c2csc(-c3sc(C)nc3-c3ccc(F)cc3)n2)cc1 [Example 1799]	≤ 1000 nM
COc1ccccc1CCNC(=O)c1csc(-c2sc(C)nc2-c2ccc(F)cc2)n1 [Example 1800]	≤ 1000 nM
CCOc1ccccc1CNC(=O)c1csc(-c2sc(C)nc2-c2ccc(F)cc2)n1 [Example 1801]	≤ 1000 nM
Cc1nc(-c2ccc(F)cc2)c(-c2nc(C(=O)NCCc3ccccc3Cl)cs2)s1 [Example 1802]	≤ 1000 nM
Cc1nc(-c2ccc(F)cc2)c(-c2nc(C(=O)NCCc3ccc(Cl)cc3)cs2)s1 [Example 1803]	≤ 1000 nM
Cc1nc(-c2ccc(F)cc2)c(-c2nc(C(=O)NCCc3cccc(Cl)c3)cs2)s1 [Example 1804]	≤ 1000 nM
Cc1nc(-c2ccc(F)cc2)c(-c2nc(C(=O)NC3CC(C)(C)NC(C)(C)C3)cs2)s1 [Example 1805]	> 1000 nM
CCN(CC)CCCC(C)NC(=O)c1csc(-c2sc(C)nc2-c2ccc(F)cc2)n1 (stereo not shown) [Example 1806]	> 1000 nM
Cc1nc(-c2ccc(F)cc2)c(-c2nc(C(=O)NCc3ccc(F)c(Cl)c3)cs2)s1 [Example 1807]	≤ 1000 nM
Cc1nc(-c2ccc(F)cc2)c(-c2nc(C(=O)NCCNC(=O)OC(C)(C)C)cs2)s1 [Example 1808]	≤ 1000 nM
Cc1nc(-c2ccc(F)cc2)c(-c2nc(C(=O)NCCc3c[nH]c4ccccc34)cs2)s1 [Example 1809]	≤ 1000 nM
Cc1nc(-c2ccc(F)cc2)c(-c2nc(C(=O)NCc3ccc(C(C)(C)C)cc3)cs2)s1 [Example 1810]	> 1000 nM

SMILES	IC50
Cc1nc(-c2ccc(F)cc2)c(-c2nc(C(=O)NCCCN(C)c3ccccc3)cs2)s1 [Example 1811]	≤ 1000 nM
Cc1nc(-c2ccc(F)cc2)c(-c2nc(C(=O)NCC3(O)CCCCC3)cs2)s1 [Example 1812]	≤ 1000 nM
COc1cc(CNC(=O)c2csc(-c3sc(C)nc3-c3ccc(F)cc3)n2)cc(OC)c1 [Example 1813]	≤ 1000 nM
COc1ccc(CNC(=O)c2csc(-c3sc(C)nc3-c3ccc(F)cc3)n2)cc1OC [Example 1814]	≤ 1000 nM
Cc1nc(-c2ccc(F)cc2)c(-c2nc(C(=O)NCC(=O)c3ccccc3)cs2)s1 [Example 1815]	> 1000 nM
CCOC(=O)N1CCC(NC(=O)c2csc(-c3sc(C)nc3-c3ccc(F)cc3)n2)CC1 [Example 1816]	> 1000 nM
Cc1nc(-c2ccc(F)cc2)c(-c2nc(C(=O)NCCCNC(=O)OC(C)(C)C)cs2)s1 [Example 1817]	≤ 1000 nM
Cc1nc(-c2ccc(F)cc2)c(-c2nc(C(=O)NCc3ccc(C(F)(F)F)cc3)cs2)s1 [Example 1818]	≤ 1000 nM
Cc1nc(-c2ccc(F)cc2)c(-c2nc(C(=O)NCc3cccc(C(F)(F)F)c3)cs2)s1 [Example 1819]	≤ 1000 nM
Cc1nc(-c2ccc(F)cc2)c(-c2nc(C(=O)NCc3ccc(Cl)c(Cl)c3)cs2)s1 [Example 1820]	≤ 1000 nM
Cc1nc(-c2ccc(F)cc2)c(-c2nc(C(=O)NCc3ccc(Cl)cc3Cl)cs2)s1 [Example 1821]	≤ 1000 nM
Cc1nc(-c2ccc(F)cc2)c(-c2nc(C(=O)NC3CCN(Cc4ccccc4)C3)cs2)s1 (stereo not shown) [Example 1822]	≤ 1000 nM
COc1ccc(OC)c(CCNC(=O)c2csc(-c3sc(C)nc3-c3ccc(F)cc3)n2)c1 [Example 1823]	≤ 1000 nM
Cc1nc(-c2ccc(F)cc2)c(-c2nc(C(=O)NCc3ccc(N(C)C)cc3)cs2)s1 [Example 1824]	≤ 1000 nM
COc1ccc(CNC(=O)c2csc(-c3sc(C)nc3-c3ccc(F)cc3)n2)cc1O [Example 1825]	≤ 1000 nM
